Data: patent US8822526B2, “Synergistic pharmaceutical combination for the treatment of cancer” (Piramal Enterprises Limited, priority 2007, dated 2014)

Experiments:
[1] = tested on: human non-small cell lung carcinoma H-460 cells; experiment: In vitro cytotoxicity assay (MTS); conditions: for % Cytotoxicity: then complete medium 45 hours
Procedure: The cytotoxicity assay used was MTS (3-(4,5-dimethylthiazol-2-yl)-5-(3-carboxymethoxyphenyl)-2-(4-sulfophenyl)-2H-tetrazolium, inner salt) assay. The human non-small cell lung carcinoma H-460 cells were seeded at a density of 1500 cells/well in 180 μL of culture medium in 96-well plate and incubated overnight to allow the cells to adhere. Varying concentrations of the drugs contained in the combination were added to the wells and incubated for an appropriate period of time in humidified 5% CO2 incubator at 37° C. in case of a single drug exposure. […] Control wells were treated with a vehicle. At the end of the incubation period, the medium was removed from the wells and 20 μL of MTS (2 mg/mL in phosphate buffer saline, pH 6-6.5 and filter sterilized) and 1 μL of phenazine methosulfate (PMS, 3 mM in phosphate buffered saline, pH 7.3 and filter sterilized) was added to each well and the total volume was adjusted to 200 μL with complete medium. The plate was incubated for 2-4 hours in humidified 5% CO2 incubator at 37° C.
(§1) After completion of the drugs treatment i.e. at the end of 96 hours the plates were processed for MTS viability assay and the percent cytotoxicity was calculated as compared to control.
as §1
(§2) The human non-small cell lung carcinoma H-460 cells were seeded at a density of 1500 cells/well. […] After completion of the drugs treatment i.e. at the end of 120 hours the plates were processed for MTS viability assay and the percent cytotoxicity was calculated as compared to control.
as §2
The human non-small cell lung carcinoma H-460 cells were seeded at a density of 1500 cells/well. […] After completion of the drugs treatment i.e. at the end of 120 hours, the plates were processed for MTS viability assay and the percent cytotoxicity was calculated as compared to control.
(§3) After completion of the drugs treatment i.e. at the end of 48 hours the plates were processed for MTS viability assay and the percent cytotoxicity was calculated as compared to control.
The plates were processed for MTS viability assay and the percent cytotoxicity was calculated as compared to control.
as §3
The human non-small cell lung carcinoma H-460 cells were seeded at a density of 1500 cells/well. As per Table 16A the cells were first treated with either of the drugs alone i.e. with doxorubicin or flavopiridol alone. Doxorubicin treatment was for the first 24 hours followed by complete medium for 96 hours while in case of flavopiridol, the first 24 hours was in complete medium followed by flavopiridol for the next 96 hours. […] After completion of the drugs treatment i.e. at the end of 120 hours the plates were processed for MTS viability assay and the percent cytotoxicity was calculated as compared to control.
As per Table 16B the cells were first treated with either of the drugs alone i.e. with doxorubicin or flavopiridol alone. Flavopiridol treatment was for the first 96 hours followed by complete medium for 24 hours while in case of doxorubicin, the first 96 hours was in complete medium followed by doxorubicin for 24 hours. […] After completion of the drugs treatment i.e. at the end of 120 hours, the plates were processed for MTS viability assay and the percent cytotoxicity was calculated as compared to control.
The human non-small cell lung carcinoma H-460 cells were seeded at a density of 1500 cells/well.

[2] = tested on: pancreatic cells (Panc-1); experiment: Analysis of cell cycle distribution and flow cytometry (sub G1 apoptosis); assay type: cell-based, human; conditions: FIG. 3: 70 nM gemcitabine alone (24 hours); 300 nM compound A alone (72 hours); combination 70 nM gemcitabine (24 hours) followed by 300 nM compound A (72 hours)
[3] = tested on: human pancreatic (Panc-1) cell line; experiment: In vitro cytotoxicity assay (MTS); assay type: cell-based; conditions: then complete medium 72 hours

CC(=O)O[C@@]12CO[C@@H]1C[C@H](O)[C@@]1(C)C(=O)[C@H](O)C3=C(C)[C@@H](OC(=O)[C@H](O)[C@@H](NC(=O)OC(C)(C)C)c4ccccc4)C[C@@](O)([C@@H](OC(=O)c4ccccc4)[C@H]21)C3(C)C [Docetaxel]
% Cytotoxicity ([1]; Docetaxel 0.1 nM first 3 hours, 3000 cells/well): 0% | % Cytotoxicity ([1]; Docetaxel 3 nM first 3 hours, 3000 cells/well): 2%

CN1CC[C@H](c2c(O)cc(O)c3c(=O)cc(-c4ccccc4Cl)oc23)[C@H](O)C1 [Flavopiridol]
IC30 concentration after 48 hours treatment ([1]; H-460 cells, 48 hours treatment): 200 nM | IC50 ([1]; Homo sapiens, NCI-H460, 48 h, read-out: IC50 concentration after 48 hours treatment, H-460 cells, 48 hours treatment): 350 nM | cytotoxicity at 0.2 µM ([1]; Homo sapiens, NCI-H460, 120 h, Flavopiridol 200 nM alone for 120 hours): 39% | cytotoxicity at 0.35 µM ([1]; Homo sapiens, NCI-H460, 120 h, Flavopiridol 350 nM alone for 120 hours): 81%

Nc1ccn([C@@H]2O[C@H](CO)[C@@H](O)C2(F)F)c(=O)n1 [Gemcitabine, 2′-deoxy-2′,2′-difluorocytidine]
apoptosis (sub G1 phase) [2]: 1.7% | % Cytotoxicity ([3]; Gemcitabine 30 nM first 24 hours): 2% | % Cytotoxicity ([3]; Gemcitabine 70 nM first 24 hours): 18% | % Cytotoxicity ([3]; Gemcitabine 100 nM first 24 hours): 38% | % Cytotoxicity ([3]; Gemcitabine 200 nM first 24 hours): 78%

CC(=O)O[C@H]1C(=O)[C@@]2(C)[C@H]([C@H](OC(=O)c3ccccc3)[C@]3(O)C[C@H](OC(=O)[C@H](O)[C@@H](NC(=O)c4ccccc4)c4ccccc4)C(C)=C1C3(C)C)[C@]1(OC(C)=O)CO[C@@H]1C[C@@H]2O [Paclitaxel]
% Cytotoxicity ([1]; Paclitaxel 10 nM first 3 hours, 1500 cells/well): 10%
